# Source: US10952992B2, “Methods of treating intraocular pressure with activators of Tie-2” (Aerpio Pharmaceuticals, Inc., priority 2015, dated 2021)
# Values joined by “and” are separate entries in the source; they are usually repeats but may differ in a detail not shown here. Equal entries are not always repeated.
# Legend:
# [1] = Example 2 aqueous humor concentrations; assay type: in vivo, male New Zealand White rabbits; conditions: for Average Peak Concentration, Aqueous Humor: suspension
# Experimental: (§1) To measure the concentration of Compound 1 in plasma and ocular tissues following topical ocular, subcutaneous, and intravitreal administration, New Zealand White rabbits were administered Compound 1, and plasma and ocular samples were collected at pre-determined time points. Compound 1 formulations were prepared fresh on each day of dosing.
# (§2) Ocular tissue samples from both eyes of each animal were collected and weights were recorded. Plasma and ocular tissue sample concentrations of Compound 1 were determined by LC-MS/MS.
# (§3) Animals were anesthetized for ocular (topical) and intravitreal dosing following the 12IA7 IACUC protocol. Each rabbit received a bolus dose of test formulation either via topical ocular administration 3 times daily on Days 1 and 2 (at 0, 6, and 12 hours), and once on Day 3 (at 0 hours) into both eyes; via intravitreal administration into both eyes once on Day 1 (at 0 hours); or via subcutaneous administration 2 times daily on Days 1 and 2 (at 0 and 8 hours) and once daily on Day 3 (at 0 hours). Doses were given within an approximately 1 hour window each day where applicable.
# (§4) On Day 1, for intravitreal administration, or on Day 3, for topical ocular and subcutaneous administration, at the appropriate ocular tissue collection time points, animals were euthanized and both eyes were enucleated immediately. Following enucleation, each eye was rinsed with phosphate-buffered saline. Ocular tissue samples from both eyes of each animal were collected at predetermined time points and weights were recorded. All the samples were frozen immediately on dry ice, and stored at −60° C. to −80° C. pending bioanalysis.
# (§5) An LC-MS/MS method was developed for the determination of Compound 1 in rabbit aqueous tissues (plasma, aqueous and vitreous humor) and solid ocular tissue samples. A pre-study standard curve was analyzed to determine the specificity, range, and lower limit of quantitation of the method. Plasma and tissue homogenate study samples were extracted and analyzed. All the samples were treated identically to the standards.
# (§6) One eight-point standard curve was used in each analytical batch. To be accepted, each batch must have had at least five of eight standards with accuracy within ±20% of nominal, except at the lower limit of quantification (LLOQ), where ±25% was acceptable.
# [2] = Example 2 iris, retina, choroid and cornea tissue concentrations; assay type: in vivo, male New Zealand White rabbits; conditions: for Average / Conc. (ng/g) OS / Conc. (ng/mL) OS / Conc. (ng/mL) OD / Conc. (ng/g) OD: subcutaneous 5 mg/kg/dose (Group 3), free acid; for Average Peak Concentration, Choroid / Average Peak Concentration, Cornea / Average Peak Concentration, Iris / Average Peak Concentration, Retina: suspension
# Experimental: as §1, §2, §3, §4, §5, §6
# [3] = Group 3 (subcutaneous 5 mg/kg/dose, suspension), 2.0 hr
# [4] = Group 3 (subcutaneous 5 mg/kg/dose, suspension), 4.0 hr
# [5] = Group 3: subcutaneous 5 mg/kg/dose
# [6] = Group 5 (intravitreal 2.5 mg/eye, suspension), 6.0 hr
# [7] = Group 5 (intravitreal 2.5 mg/eye, suspension), 24 hr
# [8] = Group 5 (intravitreal 2.5 mg/eye, suspension), 72 hr
# [9] = Group 5: intravitreal 1.54 mg/kg/dose
# [10] = Choroid, 1 hr, listed as Compound 1 (free acid)
smiles,measurement,setting,value
COC(=O)N[C@@H](Cc1ccccc1)C(=O)N[C@@H](Cc1ccc(NS(=O)(=O)O)cc1)c1csc(-c2cccs2)n1 [Compound 1 free acid],aqueous humor Average Conc.,"[1]; Group 3 (subcutaneous 5 mg/kg/dose, suspension), 0.5 hr",1.21 ng/g
same,aqueous humor Average Conc.,"[1]; Group 3 (subcutaneous 5 mg/kg/dose, suspension), 1.0 hr",0.41 ng/g
same,aqueous humor Average Conc.,[1]; [3],0.66 ng/g
same,aqueous humor Conc. OD,[1]; [3],0.601 ng/mL
same,aqueous humor Average Conc.,[1]; [4],0.51 ng/g
same,aqueous humor Conc. OS,[1]; [4],0.229 ng/mL
same,"Average Peak Concentration, Aqueous Humor",[1]; [5],1.21 ng/g
same,aqueous humor Average Conc.,[1]; [6],26400 ng/g
same,aqueous humor Conc. OD,[1]; [6],34200 ng/mL and 23400 ng/mL
same,aqueous humor Average Conc.,[1]; [7],4270 ng/g
same,aqueous humor Conc. OD,[1]; [7],3890 ng/mL and 5540 ng/mL
same,aqueous humor Average Conc.,"[1]; Group 5 (intravitreal 2.5 mg/eye, suspension), 48 hr",915 ng/g
same,aqueous humor Average Conc.,[1]; [8],120 ng/g
same,aqueous humor Conc. OD,[1]; [8],145 ng/mL and 94.1 ng/mL
same,"Average Peak Concentration, Aqueous Humor",[1]; [9],26400 ng/g
same,Average,"[2]; Choroid, 0.5 hr",127 ng/g
same,Conc. (ng/g) OS,"[2]; Choroid, 0.5 hr",83.1 ng/g and 154 ng/g
same,Conc. (ng/mL) OS,"[2]; Choroid, 0.5 hr",7.55 ng/mL and 14.0 ng/mL
same,Average,"[2]; Choroid, 1 hr",83.3 ng/g
same,Conc. (ng/mL) OD,"[2]; Choroid, 1 hr",8.65 ng/mL
same,Conc. (ng/g) OD,[2]; [10],66.4 ng/g and 95.2 ng/g
same,Conc. (ng/g) OS,[2]; [10],88.1 ng/g and 83.6 ng/g
same,Conc. (ng/mL) OD,[2]; [10],6.04 ng/mL
same,Conc. (ng/mL) OS,[2]; [10],8.01 ng/mL and 7.60 ng/mL
same,Average,"[2]; Choroid, 2 hr",47.7 ng/g
same,Conc. (ng/g) OD,"[2]; Choroid, 2 hr",36.5 ng/g and 46.9 ng/g
same,Conc. (ng/g) OS,"[2]; Choroid, 2 hr",53.2 ng/g and 54.3 ng/g
same,Conc. (ng/mL) OD,"[2]; Choroid, 2 hr",3.32 ng/mL and 4.26 ng/mL
same,Conc. (ng/mL) OS,"[2]; Choroid, 2 hr",4.84 ng/mL and 4.94 ng/mL
same,Average,"[2]; Choroid, 4 hr",61.0 ng/g
same,Conc. (ng/g) OD,"[2]; Choroid, 4 hr",53.0 ng/g and 51.2 ng/g
same,Conc. (ng/mL) OD,"[2]; Choroid, 4 hr",4.82 ng/mL and 4.65 ng/mL
same,Average,"[2]; Cornea, 0.5 hr",7.96 ng/g
same,Conc. (ng/g) OD,"[2]; Cornea, 0.5 hr",6.05 ng/g
same,Conc. (ng/g) OS,"[2]; Cornea, 0.5 hr",9.87 ng/g
same,Average,"[2]; Cornea, 1 hr",12.2 ng/g
same,Conc. (ng/g) OD,"[2]; Cornea, 1 hr",12.2 ng/g
same,Conc. (ng/mL) OS,"[2]; Cornea, 1 hr",BLOQ
same,Average,"[2]; Cornea, 2 hr",5.65 ng/g
same,Conc. (ng/g) OD,"[2]; Cornea, 2 hr",5.65 ng/g
same,Conc. (ng/mL) OS,"[2]; Cornea, 2 hr",BLOQ
same,Average,"[2]; Cornea, 4 hr",15.8 ng/g
same,Conc. (ng/g) OD,"[2]; Cornea, 4 hr",10.4 ng/g and 9.32 ng/g
same,Conc. (ng/mL) OD,"[2]; Cornea, 4 hr",0.942 ng/mL and 0.847 ng/mL
same,"Average Peak Concentration, Choroid",[2]; [5],127 ng/g
same,"Average Peak Concentration, Cornea",[2]; [5],7.96 ng/g
same,"Average Peak Concentration, Iris",[2]; [5],50.3 ng/g
same,"Average Peak Concentration, Retina",[2]; [5],38.7 ng/g
same,"Average Peak Concentration, Choroid",[2]; [9],663575 ng/g
same,"Average Peak Concentration, Cornea",[2]; [9],54560 ng/g
same,"Average Peak Concentration, Iris",[2]; [9],210650 ng/g
same,"Average Peak Concentration, Retina",[2]; [9],1988250 ng/g
same,Average,"[2]; Iris, 0.5 hr",50.3 ng/g
same,Conc. (ng/g) OS,"[2]; Iris, 0.5 hr",47.0 ng/g and 38.9 ng/g
same,Conc. (ng/mL) OS,"[2]; Iris, 0.5 hr",4.27 ng/mL and 3.54 ng/mL
same,Average,"[2]; Iris, 1 hr",58.0 ng/g
same,Conc. (ng/g) OS,"[2]; Iris, 1 hr",47.6 ng/g and 34.3 ng/g
same,Conc. (ng/mL) OS,"[2]; Iris, 1 hr",4.33 ng/mL and 3.12 ng/mL
same,Average,"[2]; Iris, 2 hr",27.6 ng/g
same,Conc. (ng/g) OD,"[2]; Iris, 2 hr",30.5 ng/g and 32.0 ng/g
same,Conc. (ng/g) OS,"[2]; Iris, 2 hr",29.5 ng/g
same,Conc. (ng/mL) OD,"[2]; Iris, 2 hr",2.77 ng/mL and 2.91 ng/mL
same,Conc. (ng/mL) OS,"[2]; Iris, 2 hr",2.68 ng/mL and 1.67 ng/mL
same,Average,"[2]; Iris, 4 hr",17.5 ng/g
same,Conc. (ng/g) OD,"[2]; Iris, 4 hr",26.5 ng/g and 17.9 ng/g
same,Conc. (ng/g) OS,"[2]; Iris, 4 hr",16.9 ng/g and 8.73 ng/g
same,Conc. (ng/mL) OD,"[2]; Iris, 4 hr",2.41 ng/mL and 1.63 ng/mL
same,Conc. (ng/mL) OS,"[2]; Iris, 4 hr",1.54 ng/mL and 0.794 ng/mL
same,Average,"[2]; Retina, 0.5 hr",38.7 ng/g
same,Average,"[2]; Retina, 1 hr",10.2 ng/g
same,Conc. (ng/g) OD,"[2]; Retina, 1 hr",10.4 ng/g
same,Conc. (ng/g) OS,"[2]; Retina, 1 hr",6.93 ng/g and 13.3 ng/g
same,Conc. (ng/mL) OS,"[2]; Retina, 1 hr",0.63 ng/mL and 1.21 ng/mL
same,Average,"[2]; Retina, 2 hr",10.5 ng/g
same,Conc. (ng/g) OD,"[2]; Retina, 2 hr",6.31 ng/g
same,Conc. (ng/g) OS,"[2]; Retina, 2 hr",6.93 ng/g
same,Average,"[2]; Retina, 4 hr",35.3 ng/g
same,Conc. (ng/mL) OD,"[2]; Retina, 4 hr",BLOQ
same,Choroid Conc. OS,"[2]; choroid homogenate, 6.0 hr, left eye, individual animals, intravitreal 2.5 mg/eye (~1.54 mg/kg), group 5",63400 ng/mL and 69700 ng/mL
same,Choroid Conc. OD,"[2]; choroid homogenate, 6.0 hr, right eye, individual animals, intravitreal 2.5 mg/eye (~1.54 mg/kg), group 5",32800 ng/mL and 75400 ng/mL
